Literature values as cited in patent US7342124B2, “Synthetic techniques and intermediates for polyhydroxy dienyl lactones and mimics thereof” (The Trustees Of The University Of Pennsylvania, priority 2003, dated 2008).

Assays:
murine splenocytes = details: in vitro
[1] = test system: mitotic spindle microtubules; details: compared with taxol
[2] = test system: graft-vs.-host splenomegaly response; details: induced by injection of parental splenocytes into F1 recipient mice
[3] = test system: cell development (M phase); details: by binding and stabilizing mitotic spindle microtubules
[4] = test system: two-way mixed-lymphocyte reaction; details: in vitro

C=C/C=C\[C@H](C)[C@H](OC(N)=O)[C@@H](C)[C@H](O)[C@@H](C)C/C(C)=C\[C@H](C)[C@@H](O)[C@@H](C)/C=C\[C@@H](O)C[C@@H]1OC(=O)[C@H](C)[C@@H](O)[C@H]1C [(+)-discodermolide]
associated cytotoxicity (murine splenocytes; at suppression of mixed-lymphocyte reaction and concanavalin A-induced mitogenesis): no associated cytotoxicity
suppression of concanavalin A-induced mitogenesis (murine splenocytes; murine splenocytes): suppresses
microtubule binding affinity relative to taxol [1]: much higher
suppression of graft-vs.-host splenomegaly response, relative potency [2]: potency intermediate between those of cyclosporin A and FK506
cell cycle arrest [3]: arrests cell development at the M phase
suppression of two-way mixed-lymphocyte reaction [4]: suppresses
